Experimental data as given in paper PMC11603075 (Communications Biology, 2024).

Tests used:
[1] = tested on: KDM5B; test: MALDI–TOF MS demethylation/+16 Da assay, KDM5B; type: biochemical, human; conditions: 90 min
Description: (§1) Fig. 2 Histone H2a fragments are KDM5 and KDM4 substrates. […] See Supplementary Table 6 and Supplementary Fig. 2 for assay conditions and quantification, respectively. […] 0-minute MS spectrum in black, 60/90-minute spectrum in red.
(§2) MS-based screening assays with peptides and calf thymus histones were as reported; see Supplementary Table 6 for conditions. Time course assays were based on reported procedures. In brief, equal volumes of the enzyme and substrate solutions were combined to initiate the reaction; 10 µL of 2% (v/v) formic acid (HCOOH) in ddH2O or 100% methanol was added to 10 µL of the reaction mixture to quench reactions at different time points. Unless otherwise stated, time course assays were carried out in triplicate. In some cases, LC–MS was used instead of MALDI-TOF MS to avoid a MALDI matrix induced artefact with the hydroxylated product (Supplementary Fig. 16). […]
(§3) Supplementary Figure 2 Histone H2a peptide fragments are substrates of KDM4s and KDM5s.
(§4) 2 for representative corresponding MALDI–TOF MS traces. Bar graphs comparing % product format ion (+16 Da and demethylation) of H2a(1–20)R3me2a by (a) K DM5 A–D (after 90 minutes) and (b) KDM4A–E ( a ft er 60 minutes), analysed by MALDI– TOF MS. n = (a) 2, (b) 3 (independent assays). See Supplementary Table 6 for assay condit ions. See Figure S13 A 1 for a positive control.
(§5) (also on this page, place not known: formation KDM5A–D (after MALDI–TOF conditions. Figure S13A1 KDM4A KDM4B KDM4C KDM4D KDM4E 80% product formation KDM5A KDM5B KDM5C KDM5D % product formation) […]
(§6) [ E nz ym e] [Peptide] [2OG] [Ascorbate] [(NH4)2F e(S O4)2] [TCEP] Buffer pH7.5 Enzyme Cognate substrate (mM) (mM) (mM) (mM) (mM) (mM) [HE PE S]
(§7) Supplementary Table 6 Summary of MS assay conditions for substrate screening. These conditions enabled efficient turnover of established substrates. Reactions were carried out at 37 °C unless otherwise st ated. […]

[2] = molecular target: T1, KDM5C (Homo sapiens, UniProt P41229); test: MALDI–TOF MS demethylation/+16 Da assay, KDM5C; type: biochemical; conditions: 90 min
T1 construct: KDM5C 1– 765; made in house; host or cells: Sf9 cells
T1 sequence (P41229 1-765): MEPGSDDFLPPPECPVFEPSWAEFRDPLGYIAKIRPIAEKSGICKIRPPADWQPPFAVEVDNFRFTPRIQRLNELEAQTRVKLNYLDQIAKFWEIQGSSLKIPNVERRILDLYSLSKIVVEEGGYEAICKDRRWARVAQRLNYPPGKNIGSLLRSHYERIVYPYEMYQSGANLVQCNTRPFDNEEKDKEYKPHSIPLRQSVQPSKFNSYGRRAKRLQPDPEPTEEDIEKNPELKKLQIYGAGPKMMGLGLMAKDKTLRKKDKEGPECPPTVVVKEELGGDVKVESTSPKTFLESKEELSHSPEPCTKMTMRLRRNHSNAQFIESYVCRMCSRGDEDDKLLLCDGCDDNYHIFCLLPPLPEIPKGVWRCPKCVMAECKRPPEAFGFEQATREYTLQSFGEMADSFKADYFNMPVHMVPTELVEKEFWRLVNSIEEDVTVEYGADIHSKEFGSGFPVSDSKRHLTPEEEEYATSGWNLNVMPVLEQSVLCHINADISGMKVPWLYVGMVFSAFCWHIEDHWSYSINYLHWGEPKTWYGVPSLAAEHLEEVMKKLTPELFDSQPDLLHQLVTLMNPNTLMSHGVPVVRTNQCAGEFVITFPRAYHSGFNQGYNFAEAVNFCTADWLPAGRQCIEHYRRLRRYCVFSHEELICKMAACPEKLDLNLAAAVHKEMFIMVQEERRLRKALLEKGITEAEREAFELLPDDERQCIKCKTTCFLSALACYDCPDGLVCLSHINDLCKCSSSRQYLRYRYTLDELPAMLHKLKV
Description: as §1, §2, §3, §4, §5, §6, §7

[3] = tested on: KDM4A1–1064; test: MALDI–TOF MS product formation, full length KDM4A1–1064; type: biochemical, human; conditions: 60 min; for % product formation: 1 µM enzyme, 10 µM peptide
Description: Supplementary Figure 5 H2aR3me2a is a substrate of full length KDM4A. (a) Representative MALDI–T OF
MS (60 -minute incubation) (from top to bottom) K DM4A 1–1064, KDM4A1–35 9 and KDM4E1–337 w it h H 2 a( 1–
Representative data are shown from n = 3 (independent assays). Charge state of labelled ions: [MH]+. (b)
Bar graph comparing % product format ion of H2a(1 –20)R3me2a by KDM4A1–10 64, KDM4A1–359 and KDM4E1–
33 7, analysed by MALDI–TOF MS. n = 2/3 (independent assays). Conditions: 1 µM KDM4A1–359 and KDM4E1–
(NH4)2Fe(SO4)2, and 50 mM HEPES (pH 7.5), 1 mM TCEP, 0.02% (v/v) Triton-X . […]

- +16 Da (% product formation) ([2]; replicate 1): 0%
- demethylation (% product formation) ([2]; replicate 1): 80.591%
- +16 Da (% product formation) ([2]; replicate 2): 0%
- demethylation (% product formation) ([2]; replicate 2): 82.588%
Substance: Ac - SGR [ me 2a ] GKQ GGKAR AKAKT R SSR [H2a(1–20)R3me2a, H2a(1–20)R3me2a without a biotin tag]
- +16 Da (% product formation) ([1]; replicate 1): 0%
- demethylation (% product formation) ([1]; replicate 1): 23.54%
- +16 Da (% product formation) ([1]; replicate 2): 0%
- demethylation (% product formation) ([1]; replicate 2): 18.654%
- % product formation ([3]; replicate 1): 19.2569%
- % product formation ([3]; replicate 2): 31.6947%
- % product formation ([3]; replicate 3): 39.2291%
- –14 Da mass shift (demethylation) ([3]; MALDI–TOF MS, n = 3): –14 Da mass shifts
